Measurements taken from US20230413860A1, “Abscisic Acid-Mixed Pig Feed” (Sumitomo Chemical Company, Limited, priority 2020, published 2023).

Columns and labels:
Format in all cases: in vivo, pig
[1] = Effect of abscisic acid on reducing productivity decrease due to heat stress in young pigs; conditions: for Feed Conversion Rate (Feed Intake/Body Weight Gain, Average value) / Feed Intake (Average value) / Body Weight Gain (Average value): high temperature (30.6° C.), young pigs; for Body Weight Gain (Average value): age 35 to 70 days
Protocol: Eighty four (84) of crossbred young pigs (LWD) at an age of 28 days were employed in this test. Body weight of the each young pigs was measured and seven animals were assigned to one section considering the average body weight across the sections was equal, and the three sections (replicates) were assigned to a total four test groups. The test period was from 28 to 70 day-old, and S-abscisic acid was used as a test substance. The S-ABA was added to the feed at the concentrations shown in the Table 6, and the feed containing S-ABA was fed daily to the pigs at the age of 28 to 70 days. The high temperature environment was carried out from the age of 36 to 70 days of the pigs.
The following four groups were set. Three sections (repetitions) per one group was set, which were assigned to each test group as indicated in the below Table.
(§1) The pigs were raised at the optimal temperature from the age of 28 to 35 day-old. After the age of 36 days the pigs of the Test group 1 were housed at an optimal temperature and the pigs of the Test groups 2 to 4 were exposed to a particular high temperature by air conditioner. The raising temperature were measured with a thermo-hygrometer or a data logger which was installed near the center of the raising room, and then recorded. The average room temperature of the optimal temperature group was 26.1° C., and the average room temperature of the […] temperature group was 30.6° C.
(§2) As a feed, similarly to the test example 1, an early feed, middle feed or late feed of MAMACOLO which was manufactured by FEED ONE CO., LTD. (2-6, Higashifukasiba Kamisu-shi, Ibaraki) was given by ad libitum feeding. A drinking water was freely ingested by a waterer with a picker. The early feed was given until the age of 35 days of the pig, the middle feed was given at the age of from 36 days to 42 days, and the late feed was given at the age of post 43 days.
• (i) Clinical symptoms: observed daily. • (ii) Body weight: Body weight was measured for each individual at the age of 28, 35 and 70 days old, and the average weight gain per a section from the age of 35 to 70 days during the test period was calculated. • (iii) Feed intake: Feed intake was measured daily by each section, and feed intake for one animal per a week was calculated. Also, feed conversion rate (feed intake/body weight gain) was calculated from “Average feed intake” and “Average body weight gain per section” during the test period.

[2] = Effect of abscisic acid on reducing productivity decrease due to cold stress in young pigs; conditions: for Feed Conversion Rate (Feed Intake/Body Weight Gain, Average value) / Feed Intake (Average value) / Body Weight Gain (Average value): low temperature (20.4° C.), young pigs; for Body Weight Gain (Average value): age 35 to 70 days
Protocol: Eighty four (84) crossbred young pigs (LWD) at an age of 28 days were employed in this test. Body weight of the each young pigs was measured and seven animals were assigned to one section considering the average body weight across the sections was equal, and the three sections (replicates) were assigned to a total four test groups. The test period was from 28 to 70 day-old, and S-abscisic acid was (hereinafter, referred to as “S-ABA”) used as a test substance. The S-ABA was added to the feed at the concentrations shown in Table 1, and the feed containing S-ABA was fed daily to the pigs at the age of 28 to 70 days. The low temperature environment was carried out from the age of 36 to 70 days of the pigs.
The following four groups were set.
as §1, with “days,” for “days”, “low” for “high”, “20.4°” for “30.6°”
as §2, with “feed,” for “feed, similarly to the test example 1,”
• (i) Clinical symptoms: observed daily. • (ii) Body weight: Body weight was measured for each individual at the age of 28, 35 and 70 days old, and the average weight gain per a section from the age of 35 to 70 days during the test period was calculated. • (iii) Feed intake: Feed intake was measured daily for each section, and feed intake for one animal per a week was calculated. Also, feed conversion rate (feed intake/body weight gain) was calculated from “Average feed intake” and “Average body weight gain per section” during the test period.

[3] = system: reduced glutathione; assay: Effect of abscisic acid on increasing production of reduced glutathione in small intestine of gilts
From the text: Twelve (12) of gilts at an age of 8 months were employed in this test. The S-ABA (particle size of 0.1 to 1 mm) in the amounts as shown in Table 11 was supplemented in the feed for about 40 days from the day of artificial insemination.
• (i) Clinical symptoms: observed daily. • (ii) Sampling of intestinal tracts: The pig was dissected on the 40th day of pregnancy, and the small intestine was sampled.
The measurement results of reduced glutathione in a small intestine after the administration for about 40 days are shown in Table 12. Using a commercially available glutathione measuring kit (manufactured by DOJINDO CHEMICALS Inc.; […]), the reduced glutathione contained in 1 g of small intestine tissue was determined quantitatively.

In the case of `CC1=CC(=O)CC(C)(C)[C@@]1(O)/C=C/C(C)=C\C(=O)O` [ABA, (S)-(+)-abscisic acid], the Clinical symptoms ([1]; 0.1, 0.5 or 1 ppm in feed, age 28 to 70 days, observed daily, high temperature) was “No abnormality was seen”, the “Feed Conversion Rate (Feed Intake/Body Weight Gain, Average value)” value ([1]; 0.1 ppm ABA in feed) was 4.54 and the “Feed Intake (Average value)” value ([1]; 0.1 ppm ABA in feed) was 30.7 kg. The “Body Weight Gain (Average value)” value ([1]; 0.1 ppm ABA in feed) was 18.04 kg, the “Feed Conversion Rate (Feed Intake/Body Weight Gain, Average value)” value ([1]; 0.5 ppm ABA in feed) was 4.25 and the “Feed Intake (Average value)” value ([1]; 0.5 ppm ABA in feed) was 29.7 kg. For the same molecule, the “Body Weight Gain (Average value)” value ([1]; 0.5 ppm ABA in feed) was 18.25 kg, the “Feed Conversion Rate (Feed Intake/Body Weight Gain, Average value)” value ([1]; 1.0 ppm ABA in feed) was 3.91 and the “Feed Intake (Average value)” value ([1]; 1.0 ppm ABA in feed) was 32.9 kg. For the same molecule, the “Body Weight Gain (Average value)” value ([1]; 1.0 ppm ABA in feed) was 19.02 kg, the Clinical symptoms ([2]; 0.1, 0.5 or 1 ppm in feed, age 28 to 70 days, observed daily, low temperature) was “No abnormality was seen” and the “Feed Conversion Rate (Feed Intake/Body Weight Gain, Average value)” value ([2]; 0.1 ppm ABA in feed) was 4.40. For the same molecule, the “Feed Intake (Average value)” value ([2]; 0.1 ppm ABA in feed) was 29.81 kg, the “Body Weight Gain (Average value)” value ([2]; 0.1 ppm ABA in feed) was 16.99 kg and the “Feed Conversion Rate (Feed Intake/Body Weight Gain, Average value)” value ([2]; 0.5 ppm ABA in feed) was 4.29. The “Feed Intake (Average value)” value ([2]; 0.5 ppm ABA in feed) was 29.91 kg, the “Body Weight Gain (Average value)” value ([2]; 0.5 ppm ABA in feed) was 16.40 kg and the “Feed Conversion Rate (Feed Intake/Body Weight Gain, Average value)” value ([2]; 1.0 ppm ABA in feed) was 4.41. For the same molecule, the “Feed Intake (Average value)” value ([2]; 1.0 ppm ABA in feed) was 30.30 kg, the “Body Weight Gain (Average value)” value ([2]; 1.0 ppm ABA in feed) was 17.00 kg and the “Reduced glutathione in small intestine tissue compared to the no dosing S-ABA group” value ([3]; 10 ppm S-ABA in feed for about 40 days) was “increased amount of reduced glutathione in small intestine tissue significantly”. The “Reduced glutathione Amount” value ([3]; 10 ppm S-ABA in feed for about 40 days from artificial insemination, small intestine tissue) was 0.234 μmol/g wet tissue and the Clinical symptoms ([3]; 10 ppm S-ABA in feed for about 40 days, observed daily) was “No abnormality was seen”.
